Measurements as given in PubChem BioAssay AID256 (DTP/NCI, 2004).
“And” between values parts separate entries of the source, which are not always exact repeats. Equal values may be shown once. Toxic doses and inconclusive results are not listed.

Tested on: CD2F1 mice, L1210 leukemia ip, survival T/C
Test: NCI In Vivo Anticancer Drug Screen. Data for tumor model L1210 Leukemia (intraperitoneal) in CD2F1 (CDF1) mice
Details: higher = longer survival
How it was run: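 Implant tumor; dose compound or vehicle; measure endpoint in both groups; report treated divided by control.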

[1] = endpoint: mean survival time, dose: 100.0 mg/kg/injection, schedule: Q01DX009 (ip), vehicle: saline
[2] = endpoint: mean survival time, dose: 200.0 mg/kg/injection, schedule: Q01DX009 (ip), vehicle: saline
[3] = endpoint: mean survival time, dose: 100.0 mg/kg/injection, schedule: Q04DX003 (ip), vehicle: saline with Tween-80
[4] = endpoint: mean survival time, dose: 200.0 mg/kg/injection, schedule: Q04DX003 (ip), vehicle: saline with Tween-80
[5] = endpoint: mean survival time, dose: 400.0 mg/kg/injection, schedule: Q04DX003 (ip), vehicle: saline with Tween-80
[6] = endpoint: mean survival time, dose: 100.0 mg/kg/injection, schedule: Q04DX003 (ip), vehicle: saline
[7] = endpoint: mean survival time, dose: 200.0 mg/kg/injection, schedule: Q04DX003 (ip), vehicle: saline
[8] = endpoint: mean survival time, dose: 100.0 mg/kg/injection, schedule: Q01DX009 (ip), vehicle: saline with Tween-80
[9] = endpoint: mean survival time, dose: 200.0 mg/kg/injection, schedule: Q01DX009 (ip), vehicle: saline with Tween-80
[10] = endpoint: mean survival time, dose: 400.0 mg/kg/injection, schedule: Q01DX009 (ip), vehicle: saline with Tween-80
[11] = endpoint: mean survival time, dose: 100.0 mg/kg/injection, schedule: Q01DX001 (ip), vehicle: saline
[12] = endpoint: mean survival time, dose: 200.0 mg/kg/injection, schedule: Q01DX001 (ip), vehicle: saline
[13] = endpoint: mean survival time, dose: 50.0 mg/kg/injection, schedule: Q01DX009 (ip), vehicle: saline with Tween-80

In the case of `CCOC(/C=C/c1ccccc1)OCC`, the T/C [1] is reported as 100 % of control, the T/C [2] is reported as 94 % of control and the T/C (endpoint: mean survival time, dose: 400.0 mg/kg/injection, schedule: Q01DX009 (ip), vehicle: saline) is reported as 103 % of control.
`O=C(O)c1cc(Cc2ccc(O)c(C(=O)O)c2)ccc1O` (tested in a mixture with another compound) was tested, and the T/C (endpoint: median survival time, dose: 6.25 mg/kg/injection, schedule: Q01DX009 (ip), vehicle: Klucel (hydroxypropylcellulose) (HPC)) was 101 % of control, the T/C (endpoint: median survival time, dose: 12.5 mg/kg/injection, schedule: Q01DX009 (ip), vehicle: Klucel (hydroxypropylcellulose) (HPC)) was 104 % of control and the T/C (endpoint: median survival time, dose: 25.0 mg/kg/injection, schedule: Q01DX009 (ip), vehicle: Klucel (hydroxypropylcellulose) (HPC)) was 104 % of control. The T/C (endpoint: median survival time, dose: 50.0 mg/kg/injection, schedule: Q01DX009 (ip), vehicle: Klucel (hydroxypropylcellulose) (HPC)) was 97 % of control, the T/C (endpoint: median survival time, dose: 100.0 mg/kg/injection, schedule: Q01DX009 (ip), vehicle: Klucel (hydroxypropylcellulose) (HPC)) was 96 % of control and the T/C (endpoint: median survival time, dose: 200.0 mg/kg/injection, schedule: Q01DX009 (ip), vehicle: Klucel (hydroxypropylcellulose) (HPC)) was 89 % of control.
For `CN(C)CCC(O)C(O)CCN(C)C` (configuration not stated), the T/C (endpoint: mean survival time, dose: 75.0 mg/kg/injection, schedule: Q01DX001 (ip), vehicle: other) was 102 % of control, the T/C (endpoint: mean survival time, dose: 150.0 mg/kg/injection, schedule: Q01DX001 (ip), vehicle: other) was 102 % of control and the T/C (endpoint: mean survival time, dose: 300.0 mg/kg/injection, schedule: Q01DX001 (ip), vehicle: other) was 103 % of control.
`CC(=O)NS(=O)(=O)c1ccc([NH-])cc1.CC(=O)NS(=O)(=O)c1ccc([NH-])cc1.[Cl][Pt+2][Cl]` was tested, and the T/C (endpoint: mean survival time, dose: 25.0 mg/kg/injection, schedule: Q04DX003 (ip), vehicle: saline with Tween-80) was 102 % of control, the T/C (endpoint: mean survival time, dose: 50.0 mg/kg/injection, schedule: Q04DX003 (ip), vehicle: saline with Tween-80) was 97 % of control and the T/C [3] was 96 % of control. The T/C [4] was 94 % of control and the T/C [5] was 104 % of control.
In the case of `Oc1cc(O)c2c(c1)OC(c1ccc(O)c(O)c1)C(OC1(c3cc(O)c(O)c(O)c3)Oc3cc(O)cc(O)c3C(O)C1O)C2` (configuration not stated), the T/C [6] is reported as 109 % of control, the T/C [7] is reported as 95 % of control and the T/C (endpoint: mean survival time, dose: 400.0 mg/kg/injection, schedule: Q04DX003 (ip), vehicle: saline) is reported as 107 % of control.
`C(=NCCN=Cc1ccccc1)c1ccccc1` was tested, and the T/C [8] was 97 % of control, the T/C [9] was 97 % of control and the T/C [10] was 96 % of control.
In the case of `NC(=O)n1ccnc1`, the T/C (endpoint: mean survival time, dose: 50.0 mg/kg/injection, schedule: Q01DX001 (ip), vehicle: saline) is reported as 96 % of control, the T/C [11] is reported as 98 % of control and the T/C [12] is reported as 108 % of control.
With `O=S(c1cc(Cl)ccc1O)c1cc(Cl)ccc1O` the T/C [3] was 98 % of control and the T/C [4] was 89 % of control.
For `Cc1ccc2nc(C(F)(F)F)cc(NN)c2c1`, the T/C [8] was 100 % of control, the T/C [3] was 101 % of control and the T/C [9] was 94 % of control. For the same compound, the T/C [4] was 96 % of control, the T/C [10] was 100 % of control and the T/C [5] was 98 % of control.
`CN(C1=CC(=O)C(N(C)C2CCCCC2)=CC1=O)C1CCCCC1` was tested, and the T/C (endpoint: mean survival time, dose: 3.75 mg/kg/injection, schedule: Q01DX009 (ip), vehicle: saline) was 94 % of control, the T/C (endpoint: mean survival time, dose: 3.75 mg/kg/injection, schedule: Q04DX003 (ip), vehicle: saline) was 103 % of control and the T/C (endpoint: mean survival time, dose: 7.5 mg/kg/injection, schedule: Q01DX009 (ip), vehicle: saline) was 90 % of control. For the same compound, the T/C (endpoint: mean survival time, dose: 7.5 mg/kg/injection, schedule: Q04DX003 (ip), vehicle: saline) was 101 % of control, the T/C (endpoint: mean survival time, dose: 15.0 mg/kg/injection, schedule: Q01DX009 (ip), vehicle: saline) was 89 % of control and the T/C (endpoint: mean survival time, dose: 15.0 mg/kg/injection, schedule: Q04DX003 (ip), vehicle: saline) was 98 % of control.
`CCC(/C=C/C(C)C1CCC2C3CCC45CC4CCC5(C)C3CCC12C)C(C)C` (configuration not stated) was tested, and the T/C [3] was 97 % of control and the T/C [5] was 87 % of control.
For `Cc1cc(C)c(N)c(Br)c1C`, the T/C [8] was 102 % of control, the T/C [3] was 103 % of control and the T/C [9] was 97 % of control. For the same compound, the T/C [4] was 100 % of control, the T/C [10] was 104 % of control and the T/C [5] was 101 % of control.
In the case of `O=C1CCC(=O)N1CC(O)COc1ccc(Cl)cc1` (configuration not stated), the T/C [3] is reported as 95 % of control, the T/C [4] is reported as 98 % of control and the T/C [5] is reported as 95 % of control.
With `COc1cc(Cl)ccc1NC(=O)Oc1ccc(Cl)cc1Br` the T/C [13] was 96 % of control, the T/C [8] was 96 % of control and the T/C [9] was 96 % of control.
For `COc1ccc(N/C=C/C2=[N+](C)c3ccccc3C2(C)C)c(OC)c1`, the T/C (endpoint: mean survival time, dose: 50.0 mg/kg/injection, schedule: Q01DX009 (ip), vehicle: saline) was 103 % of control, the T/C [1] was 105 % of control and the T/C [6] was 89 % of control. The T/C [2] was 97 % of control and the T/C [7] was 89 % of control.
`O=Nc1cc(S(=O)(=O)O)c2ccccc2c1O` was tested, and the T/C [8] was 90 % of control, the T/C [3] was 97 % of control and the T/C [9] was 88 % of control and 109 % of control. The T/C [10] was 95 % of control and the T/C [5] was 97 % of control.
In the case of `CC(C)NCC1CC2c3cccc4[nH]cc(c34)CC2N(C)C1` (configuration not stated), the T/C (endpoint: median survival time, dose: 25.0 mg/kg/injection, schedule: Q04DX003 (ip), vehicle: saline with Tween-80) is reported as 100 % of control and the T/C (endpoint: median survival time, dose: 50.0 mg/kg/injection, schedule: Q04DX003 (ip), vehicle: saline with Tween-80) is reported as 111 % of control.
For `Cc1cc2c(=O)[nH]cnc2[nH]1`, the T/C (endpoint: median survival time, dose: 12.5 mg/kg/injection, schedule: Q01DX005 (ip), vehicle: saline with Tween-80) was 102 % of control, the T/C (endpoint: median survival time, dose: 25.0 mg/kg/injection, schedule: Q01DX005 (ip), vehicle: saline with Tween-80) was 100 % of control and the T/C (endpoint: median survival time, dose: 50.0 mg/kg/injection, schedule: Q01DX005 (ip), vehicle: saline with Tween-80) was 101 % of control. The T/C (endpoint: median survival time, dose: 50.0 mg/kg/injection, schedule: Q01DX005 (ip), vehicle: saline) was 102 % of control and the T/C (endpoint: median survival time, dose: 100.0 mg/kg/injection, schedule: Q01DX005 (ip), vehicle: saline) was 90 % of control.
With `O=S(=O)(SC1=NCCN1)c1ccccc1` the T/C [11] was 101 % of control, the T/C [12] was 97 % of control and the T/C (endpoint: mean survival time, dose: 400.0 mg/kg/injection, schedule: Q01DX001 (ip), vehicle: saline) was 101 % of control.
For `O=C1Cc2cccc(=O)c(O)c2C(=O)O1`, the T/C (endpoint: mean survival time, dose: 25.0 mg/kg/injection, schedule: Q04DX003 (ip), vehicle: saline) was 96 % of control, the T/C (endpoint: mean survival time, dose: 50.0 mg/kg/injection, schedule: Q04DX003 (ip), vehicle: saline) was 104 % of control and the T/C [6] was 94 % of control.
`CCOC(=O)CNC(=O)Nc1ccccc1OCC` was tested, and the T/C [13] was 89 % of control, the T/C [8] was 89 % of control and the T/C [9] was 93 % of control.
With `Cc1ccc(S(=O)(=O)NS(=O)(=O)c2ccc(C)cc2)cc1` the T/C (endpoint: mean survival time, dose: 25.0 mg/kg/injection, schedule: Q04DX003 (ip), vehicle: Klucel (hydroxypropylcellulose) (HPC)) was 106 % of control, the T/C (endpoint: mean survival time, dose: 50.0 mg/kg/injection, schedule: Q04DX003 (ip), vehicle: Klucel (hydroxypropylcellulose) (HPC)) was 100 % of control and the T/C (endpoint: mean survival time, dose: 75.0 mg/kg/injection, schedule: Q04DX003 (ip), vehicle: saline sonified) was 97 % of control. For the same compound, the T/C (endpoint: mean survival time, dose: 100.0 mg/kg/injection, schedule: Q04DX003 (ip), vehicle: Klucel (hydroxypropylcellulose) (HPC)) was 88 % of control, the T/C (endpoint: mean survival time, dose: 150.0 mg/kg/injection, schedule: Q04DX003 (ip), vehicle: saline sonified) was 95 % of control and the T/C (endpoint: mean survival time, dose: 300.0 mg/kg/injection, schedule: Q04DX003 (ip), vehicle: saline sonified) was 101 % of control.
For `CS(=O)(=O)OCCN(CCOS(C)(=O)=O)c1ccc(N=O)cc1`, the T/C (endpoint: mean survival time, dose: 0.25 mg/kg/injection, schedule: Q01DX009 (ip), vehicle: saline) was 101 % of control, the T/C (endpoint: mean survival time, dose: 0.5 mg/kg/injection, schedule: Q01DX001 (ip), vehicle: saline) was 113 % of control and the T/C (endpoint: mean survival time, dose: 0.5 mg/kg/injection, schedule: Q01DX005 (ip), vehicle: saline) was 103 % of control. The T/C (endpoint: mean survival time, dose: 0.5 mg/kg/injection, schedule: Q01DX009 (ip), vehicle: saline) was 91 % of control, the T/C (endpoint: mean survival time, dose: 1.0 mg/kg/injection, schedule: Q01DX005 (ip), vehicle: saline) was 114 % of control and the T/C (endpoint: mean survival time, dose: 1.0 mg/kg/injection, schedule: Q04DX003 (ip), vehicle: saline) was 97 % of control. The T/C (endpoint: mean survival time, dose: 2.0 mg/kg/injection, schedule: Q01DX001 (ip), vehicle: saline) was 114 % of control, the T/C (endpoint: mean survival time, dose: 2.0 mg/kg/injection, schedule: Q04DX003 (ip), vehicle: saline) was 97 % of control and the T/C (endpoint: mean survival time, dose: 7.5 micrograms/kg/injection, schedule: Q03HX024 (ip), vehicle: saline) was 234 % of control. For the same compound, the T/C (endpoint: mean survival time, dose: 31.3 micrograms/kg/injection, schedule: Q03HX024 (ip), vehicle: saline) was 115 % of control.
`Cc1c(C)c(OC(=O)c2ccccc2)c(Br)c(C)c1OC(=O)c1ccccc1` was tested, and the T/C (endpoint: mean survival time, dose: 100.0 mg/kg/injection, schedule: Q01DX001 (ip), vehicle: saline with Tween-80) was 91 % of control, the T/C [8] was 100 % of control and the T/C (endpoint: mean survival time, dose: 200.0 mg/kg/injection, schedule: Q01DX001 (ip), vehicle: saline with Tween-80) was 100 % of control. For the same compound, the T/C [9] was 100 % of control, the T/C (endpoint: mean survival time, dose: 400.0 mg/kg/injection, schedule: Q01DX001 (ip), vehicle: saline with Tween-80) was 100 % of control and the T/C [10] was 100 % of control.
